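Step 1: Grow cells in 96-well plates. Step 2: Expose to compound for 48 hours at 5 concentrations. Step 3: Interpolate endpoints linearly; if unreached, use highest concentration. GI50 is the concentration that inhibits growth by half.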 The source made the active and inactive calls. No stated cut-off is given here; in the data, active = GI50 up to about 1.1 µM and inactive = higher.
What was measured:
Test in all cases: inhibition of tumour cell growth, NCI panel, 48 h
[1] = test system: BT-549
[2] = test system: CCRF-CEM
[3] = test system: DU-145
[4] = test system: HCC 2998
[5] = test system: HOP-92
[6] = test system: HT-29
[7] = test system: KM12
[8] = test system: MCF7
[9] = test system: NCI-H226
[10] = test system: NCI-H23
[11] = test system: OVCAR-3
[12] = test system: OVCAR-5
[13] = test system: OVCAR-8
[14] = test system: PC-3
[15] = test system: RPMI-8226
[16] = test system: SK-MEL-5
[17] = test system: HL-60
[18] = test system: SR

Measured: GI50

NC1=CC(C(=O)c2ccncc2)c2nc3ccccc3nc21 (centres undefined)
inactive: [1] > 100 µM | [2] > 100 µM | [3] > 100 µM | [4] > 100 µM | [5] > 100 µM | [6] 68.5 µM | [7] > 100 µM | [8] > 100 µM | [9] > 100 µM | [10] 63 µM | [11] > 100 µM | [12] > 100 µM | [13] 63.5 µM | [14] > 100 µM | [15] > 100 µM | [16] > 100 µM

O=C(Nc1cccc(C(F)(F)F)c1)c1cc(Br)cc(Br)c1O [FLUOROSALAN]
inactive: [2] 3.22 µM | [3] 2.9 µM | [4] 3.03 µM | [17] 2.34 µM | [5] 2.27 µM | [6] 3.91 µM | [7] 3.28 µM | [8] 2.89 µM | [9] 3.51 µM | [10] 2.22 µM | [11] 2.24 µM | [12] 4.76 µM | [13] 3.09 µM | [14] 2.32 µM | [15] 2.08 µM | [16] 1.65 µM | [18] > 10 µM

CCCC[C@@H]1CCN2C[C@@H](O)[C@@H](O)[C@H]2[C@@H]1O
inactive: [1] > 100 µM | [2] > 100 µM | [4] > 100 µM | [17] > 100 µM | [5] > 100 µM | [6] > 100 µM | [7] > 100 µM | [8] > 100 µM | [9] > 100 µM | [10] > 100 µM | [11] > 100 µM | [12] > 100 µM | [13] > 100 µM | [14] > 100 µM | [15] > 100 µM | [16] > 100 µM

CC(C)(C)OC(=O)NC(Cc1ccc(OC(C)(C)C)cc1)C(=O)N[C@H]1CCC[C@H]1C(=O)NC(Cc1ccccc1)C(=O)N1CCCC1C(N)=O (some centres undefined)
inactive: [2] > 100 µM | [3] > 100 µM | [4] > 100 µM | [5] > 100 µM | [6] > 100 µM | [7] > 100 µM | [8] > 100 µM | [9] > 100 µM | [10] > 100 µM | [11] > 100 µM | [12] > 100 µM | [13] > 100 µM | [14] > 100 µM | [15] 80.5 µM | [16] > 100 µM | [18] > 100 µM

Cc1ccc(S(=O)(=O)NNC(=S)Nc2cccc3ccccc23)cc1
inactive: [2] 34.7 µM | [3] 69 µM | [4] 53.8 µM | [17] 28.3 µM | [5] 30.6 µM | [6] 56.5 µM | [7] 23.4 µM | [8] 31.6 µM | [9] 29.4 µM | [10] 32.3 µM | [12] 89.3 µM | [13] 37.5 µM | [14] 37.2 µM | [15] 37.4 µM | [16] 17.8 µM | [18] 46.3 µM

CC(=O)NC(Cc1ccc(O)cc1)C(=O)O (centres undefined)
inactive: [1] > 100 µM | [3] > 100 µM | [4] > 100 µM | [17] > 100 µM | [5] > 100 µM | [6] > 100 µM | [7] > 100 µM | [8] > 100 µM | [9] > 100 µM | [10] > 100 µM | [11] > 100 µM | [12] > 100 µM | [13] > 100 µM | [14] > 100 µM | [15] > 100 µM | [16] > 100 µM

CC1(C)CC(=O)c2c(nc3c(ccc4ccccc43)c2-c2ccc(NC(=O)CCCC(=O)Nc3ccc(-c4c5c(nc6c4ccc4ccccc46)CC(C)(C)CC5=O)cc3)cc2)C1
inactive: [2] > 100 µM | [3] > 100 µM | [17] > 100 µM | [6] > 100 µM | [7] > 100 µM | [8] > 100 µM | [9] > 100 µM | [11] > 100 µM | [12] > 100 µM | [13] > 100 µM | [14] > 100 µM | [15] > 100 µM | [16] > 100 µM | [18] > 100 µM

O=[N+]([O-])/C(C(Cl)=C(Cl)Cl)=C(\Nc1ccccc1)n1nnc2ccccc21
inactive: [1] 27 µM | [2] 21.4 µM | [4] > 100 µM | [6] 44.8 µM | [7] 20.5 µM | [8] 55.8 µM | [9] > 100 µM | [10] 25.9 µM | [11] 48.1 µM | [12] 42.1 µM | [13] > 100 µM | [14] 40.6 µM | [15] 21.6 µM

O=C1c2ccccc2-c2nnc3c(c21)-c1ccccc1C3
inactive: [2] 89.3 µM | [3] > 100 µM | [17] 60.5 µM | [5] > 100 µM | [6] 48 µM | [7] > 100 µM | [8] 64.6 µM | [9] 43.5 µM | [10] > 100 µM | [12] > 100 µM | [13] 44.2 µM | [14] > 100 µM | [15] 57.1 µM | [16] 66.8 µM | [18] 12 µM

Cc1ccccc1/N=N/c1ccc(/N=N/c2c(O)ccc3cc(S(=O)(=O)O)cc(S(=O)(=O)O)c23)c(C)c1
inactive: [1] > 100 µM | [2] > 100 µM | [4] > 100 µM | [17] > 100 µM | [5] > 100 µM | [6] > 100 µM | [7] > 100 µM | [8] > 100 µM | [9] > 100 µM | [10] > 100 µM | [11] > 100 µM | [12] > 100 µM | [13] > 100 µM | [14] > 100 µM | [15] > 100 µM | [16] > 100 µM | [18] > 100 µM

COC(OC)[C@@H]1OC[C@H](n2cnc3c(N)ncnc32)[C@H]1O
inactive: [1] > 100 µM | [2] > 100 µM | [3] > 100 µM | [4] > 100 µM | [5] > 100 µM | [6] > 100 µM | [7] > 100 µM | [9] > 100 µM | [10] > 100 µM | [11] > 100 µM | [12] > 100 µM | [14] > 100 µM | [15] > 100 µM | [16] > 100 µM | [18] > 100 µM

CC(C)(C)OC(=O)NC(C)(C)C(=O)NCCC(=O)O
inactive: [1] > 100 µM | [2] > 100 µM | [6] > 100 µM | [7] > 100 µM | [8] > 100 µM | [9] > 100 µM | [10] > 100 µM | [11] > 100 µM | [12] > 100 µM | [13] > 100 µM | [14] > 100 µM | [15] > 100 µM | [16] > 100 µM

From ChEMBL document CHEMBL1201862, “PubChem BioAssay data set” (2004)
